Measurements reported in patent publication US10470445B2, “Fumarylacetoacetate hydrolase (Fah)-deficient and immunodeficient rats and uses thereof” (YECURIS CORPORATION, priority 2011, dated 2019).

System: Nude (RNU) rats
Assay: FK506 immunosuppression of nude rats transplanted with human hepatocytes, body size
Assay type: in vivo, rat
Details: 2 mg/kg/day FK506, four weeks after hepatocyte injection
Method: Forty nude rat pups (2 weeks old) were obtained from Charles River and acclimated for a week before the study began. The rats were assigned to + or −immunosuppressive groups, with controls in each group (see Table 3 below). Rats assigned to the +immunosuppressive group were treated with 2 mg/kg/day subcutaneous doses of FK506 (Tacrolimus) throughout the study, with the initial dosage being 20 μl of 5 mg/mL FK506 ([…]) per day, based upon an average initial animal weight of 50 g at the start of the study. The −immunosuppression rats were not treated with FK506, but were injected subcutaneously with the same volume of saline throughout the study. All of the rats were then given an intravenous injection (retroorbital) of uPA adenovirus (2.5×10^9 plaque forming units (PFU) per 50 g rat) 48-96 hours before hepatocyte injection.
Two weeks after study commencement, the dose of FK506 was increased to 30 μl of 5 mg/mL due to an increase in animal weight. Four weeks after study commencement, the dose of FK506 was again increased to 25 μl of 10 mg/mL to account for growth of the rats.
Four weeks after hepatocyte injection (˜5 weeks after study commencement), at least 50 μl of whole blood was collected from the rats and allowed to clot for 1 hour at room temperature. Serum was collected by centrifuging the whole blood at 1,500 rpm×15 minutes. […]

C=CC[C@@H]1/C=C(\C)C[C@H](C)C[C@H](OC)[C@H]2O[C@@](O)(C(=O)C(=O)N3CCCC[C@H]3C(=O)O[C@H](/C(C)=C/[C@@H]3CC[C@@H](O)[C@H](OC)C3)[C@H](C)[C@@H](O)CC1=O)[C@H](C)C[C@@H]2OC [FK506]
body size on reweighing versus non-treated rats: significantly smaller than their non-treated counterparts
